Experimental data as given in patent publication US20250108036A1, “COMPOSITIONS FOR REMOVING SENESCENT CELLS AND USES THEREOF” (LIFECEUTIX CO., LTD., priority 2021, published 2025).

B1: LX-3103: CAS 9015-68-3 (protein, UniProt P00805 23-348, looked up)
L-asparaginase 2: LPNITILATGGTIAGGGDSATKSNYTVGKVGVENLVNAVPQLKDIANVKGEQVVNIGSQDMNDNVWLTLAKKINTDCDKTDGFVITHGTDTMEETAYFLDLTVKCDKPVVMVGAMRPSTSMSADGPFNLYNAVVTAADKASANRGVLVVMNDTVLDGRDVTKTNTTDVATFKSVNYGPLGYIHNGKIDYQRTPARKHTSDTPFDVSKLNELPKVGIVYNYANASDLPAKALVDAGYDGIVSAGVGNGNLYKSVFDTLATAAKTGTAVVRSSRVPTGATTQDAEVDDAKYGFVASGTLNPQKARVLLQLALTQTKDPQQIQQIFNQY

Experiments:
HMGN1 [1] = assay: HMGN1 ELISA in culture medium of foreskin cells (Examples 10, 11; Tables 62, 63, 64); format: cell-based, human; details: doxorubicin-treated foreskin cells, DMSO = 100; for activity at 30 µM: Homo sapiens, read-out: HMGN1
[2] = open field test in obese mice given senescent cells killed by test compounds (Example 16, Table 72); format: in vivo, C57BL6J mice; details: obese mice administered senescent cells whose death was induced by the test compound
Excerpt: (§1) To obtain preadipocytes, groin fat tissue was collected from an 8-week-old female C57BL6J mouse (purchased from KRIBB Laboratory Animal Resource Center). The fat tissue was cut into small pieces and treated with collagenase to decompose the fat tissue, then centrifuged to collect the stromal vascular fraction (SVF) containing preadipocytes. It was washed with a washing medium (HBSS, purchased from GenDEPOT; 3.5% Albumin Fraction V, purchased from GenDEPOT; 100 U/ml Penicillin & Streptomycin, purchased from Invitrogen), mixed again, and extracted by filtering through a 100 μm nylon mesh. The isolated preadipocytes were cultured in the designated medium (DMEM, purchased from GenDEPOT; 20% FBS, purchased from GenDEPOT; 100 U/ml Penicillin & Streptomycin, purchased from Invitrogen). In the same manner as Example 1, cells were treated with doxorubicin at a concentration of 250 nM for 24 hours and cultured for an additional 21 days to induce cell senescence. Cells were treated with doxorubicin at a concentration of 250 nM for 24 hours and cultured for an additional 21 days to induce cell senescence. By treating the test compounds in the same manner as in Example 13, it was confirmed using an optical microscope that the death of most senescent cells was induced. The killed preadipocytes were washed using PBS (purchased from Welgene) and then mixed with PBS at a concentration of 5×10^5 cells/200 μl. It was administered subcutaneously to 8-week-old female C57BL6J mice (purchased from KRIBB Laboratory Animal Resource Center). At 7 and 10 days after administration of the killed senescent cells, 2 million senescent preadipocytes were mixed in 200 μl of PBS and administered into the abdominal cavity of mice. After administration of killed senescent cells, obesity was induced in mice with a high-fat diet (DIO) for 8 weeks in the same manner as in Example 9-1. Afterwards, the mouse was sacrificed in the same manner as in Example 7-2, total RNA was extracted from the groin fat tissue, and qRT-PCR was performed and analyzed using the synthesized cDNA. […] The mRNA amount of p16, MMP3, and IL6 without administration of senescent cells whose death was induced by the test compounds was calculated as 100%, and the amount of p16, MMP3, and IL6 after administration of the senescent cells whose death was induced by the test compounds was compared with them. Furthermore, an open field test was performed to analyze aging-related frailty in mice using the same method as Example 7-7. […] The amount of activity evaluation without administration of senescent cells whose death was induced by the test compounds was calculated as 100% and compared it with the amount of activity evaluation after administration of senescent cells whose death was induced by the test compounds.

p16, MMP3, IL6 = p16, MMP3, IL6 mRNA qRT-PCR in groin fat of obese mice given senescent cells killed by test compounds (Example 16, Table 72); format: in vivo, C57BL6J mice; details: obese mice administered senescent cells whose death was induced by the test compound
Excerpt: as §1, with “compounds. […]” for “compounds.”

A549 = assay: CellTiter-Glo cell viability of senescent A549 cancer cells (Example 12, Table 67); format: cell-based, human; details: CellTiter-Glo; for Survival (%): doxorubicin-induced senescent A549 cancer cells
[3] = test system: foreskin cells in which senescence was induced by doxorubicin; assay: CellTiter-Glo cell viability of doxorubicin-induced senescent foreskin cells (Examples 1-2, 10, 11, 13; Tables 4, 63, 65); format: cell-based, human; details: doxorubicin-induced senescent foreskin cells, CellTiter-Glo, 0 μM = 100
Protocol: After 3 days, cell viability was measured using CellTiter-Glo Luminescent Cell Viability Assay (Promega) or light microscopy.

HMGN1 [4] = assay: HMGN1 ELISA in culture medium of A549 cancer cells (Example 12, Table 66); format: cell-based, human; details: ELISA, DMSO = 100; for activity at 30 µM: Homo sapiens, A549, doxorubicin-induced senescent A549 cells, read-out: HMGN1 (amount of HMGN1 secreted in the cell culture); for HMGN1 (amount of HMGN1 secreted in the cell culture): doxorubicin-induced senescent A549 cells
senescent foreskin cells = assay: survival of senescent foreskin cells treated with medium supernatant (secreted fluid) of compound-killed cells (Example 13, Tables 68, 69); format: cell-based, human; details: culture medium supernatant from dying senescent cells treated with compound at 30 μM, 90 μM or 270 μM; senescent foreskin cells
[5] = Homo sapiens, A549, doxorubicin-induced senescent A549 cancer cells, 1.1 μM test compound, read-out: Survival (%)
[6] = Homo sapiens, 72 h, 1.1 μM test compound, read-out: Survival (%)
[7] = Homo sapiens, 72 h, […] test compound, read-out: Survival (%)

Molecule	activity at 30 µM (HMGN1 [1]; 30 μM test compound)	Open Field Test Time in Center (%) [2]	IL6 mRNA (%) (p16, MMP3, IL6)	MMP3 mRNA (%) (p16, MMP3, IL6)	p16 mRNA (%) (p16, MMP3, IL6)	viability at 1.1 µM (A549; [5])	viability at 1.1 µM [3, 6]	activity at 30 µM (HMGN1 [4]; test compound 30 μM)	Survival (senescent foreskin cells)	HMGN1 (HMGN1 [1]; 30 μM test compound)	Survival (%) (A549; 1.1 μM test compound)	Survival (%) (A549; 10 μM test compound)	Survival (%) (A549; 30 μM test compound)	Survival (%) ([3]; 1.1 μM test compound)	Survival (%) ([3]; 10 μM test compound)	Survival (%) ([3]; 30 μM test compound)	Survival (%) ([3]; […] test compound)	HMGN1 (amount of HMGN1 secreted in the cell culture) (HMGN1 [4]; test compound 30 μM)	further results
CCC(C)SSc1ncc[nH]1 (stereo not shown) [LX-307]	258%	159 (±9.9) %	87.2 (±10.5) %	76.7 (±7.7) %	73.1 (±8.5) %	101%	101%	305%	–	–	–	–	–	–	–	–	–	–	viability at 10 µM (A549; Homo sapiens, A549, doxorubicin-induced senescent A549 cancer cells, 10 μM test compound, read-out: Survival (%)): 72.5%; viability at 30 µM (A549; Homo sapiens, A549, doxorubicin-induced senescent A549 cancer cells, 30 μM test compound, read-out: Survival (%)): 7.6%; viability at 10 µM ([3]; Homo sapiens, 72 h, 10 μM test compound, read-out: Survival (%)): 14.5%; viability at 30 µM ([3]; Homo sapiens, 72 h, 30 μM test compound, read-out: Survival (%)): 3.5%; viability at […] [3, 7]: 85.6%
C[C@H]1Cc2c([nH]c3ccccc23)[C@H](c2ccc(C(=O)N[C@]34CC5C[C@H](C[C@H](C5)C3)C4)cc2)N1C(=O)CCl [LX-411]	300%	163 (±9) %	71.9 (±7.2) %	92.7 (±8.1) %	79.7 (±6.6) %	1.8%	0.2%	335%	–	–	–	–	–	–	–	–	–	–	–
COc1cc(OC)cc(O[C@H]2OC3O[C@@]4(C)CCC5[C@H](C)CCC([C@H]2C)[C@@]35OO4)c1 (stereo partly shown) [LX-502]	274%	126 (±20.4) %	83.3 (±5.1) %	77.4 (±8)^ %	81.7 (±7.8) %	78.4%	59.1%	321%	–	–	–	–	–	–	–	–	–	–	viability at […] [3, 7]: 10.4%
C[Se](=O)O [LX-3105, Methylseleninic acid]	–	–	–	–	–	–	–	–	69.1	195	84%	69.9%	59.3%	82.1%	41.1%	37.7%	59.5%	–	Survival (%) (A549; 90 μM test compound): 39.6%; Survival (%) ([3]; 90 μM test compound): 4.1%; HMGN1 (amount of HMGN1 secreted in the cell culture) (HMGN1 [4]; test compound 90 μM): 202
Cc1nc(-c2nc(-c3ccc(OC(F)(F)F)cc3)no2)nn1Cc1cccc(N2CCC(S(C)(=O)=O)CC2)c1 [LX-3200]	–	–	–	–	–	–	–	–	54.9	234	94.9%	61.6%	1.6%	92.2%	14.3%	–	78.6%	305	–
LX-3401: Interferon gamma, CAS 98059-61-1 (IFNy-1b), 82115-62-6	–	–	–	–	–	–	–	–	66.8	–	110.8%	58.3%	5.8%	101.8%	75.8%	35.4%	98.1%	–	HMGN1 (HMGN1 [1]; 20 ng/ml test compound): 198; HMGN1 (amount of HMGN1 secreted in the cell culture) (HMGN1 [4]; test compound 20 ng/ml): 284
Tocofersolan [LX-3001, reference compound]	–	–	–	–	–	–	–	–	58.7	301	101.6%	22.6%	–	74.8%	–	–	1.1%	261	–
[3,4,5-triacetyloxy-6-[4-[2-[(dimethylamino)methyl]prop-2-enoyl]phenoxy]oxan-2-yl]methyl acetate [LX-918]	–	–	–	–	–	–	–	–	63.8	247	103.8%	86.7%	82.9%	98.9%	94.5%	32.7%	95.4%	–	Survival (%) (A549; 90 μM test compound): 31.8%; HMGN1 (amount of HMGN1 secreted in the cell culture) (HMGN1 [4]; test compound 90 μM): 200
B1	–	–	–	–	–	–	–	–	64.3	243	68.7%	21.1%	–	84.4%	48.5%	25%	71.2%	254	–
